Experiments:
LDL = assay: Protection against LDL oxidation by copper (conjugated diene formation); format: biochemical
Procedure: LDL oxidation is an important alteration and plays a predominant role in the establishment and development of atherosclerosis (Jurgens G et al., 1987). […] Unless otherwise indicated, the reagents were from Sigma (St Quentin, France). LDL were prepared according to the method described by (Havel R J et al., 1955). The solutions of test compounds were prepared at 10^−2 M concentration in bicarbonate buffer (pH 9) and diluted in PBS to obtain final concentrations ranging from 0.1 to 100 μM for a total ethanol concentration of […]. Prior to oxidation, EDTA was removed from the LDL preparation by dialysis. Oxidation then took place at 30° C. by addition of 100 μl of 16.6 μM CuSO4 solution to 160 μL of LDL (125 μg protein/ml) and 20 μl of a test compound solution. The formation of dienes, the species under observation, was followed by measuring optical density at 234 nm in the samples treated with the compounds but in the presence or absence of copper. Optical density at 234 nm was measured every 10 minutes for 8 hours in a thermostated spectrophotometer (Tecan Ultra 380). The compounds were considered to have antioxidant activity when they induced a longer lag phase and reduced the rate of oxidation and the amount of dienes formed in comparison with the control sample.

human PPARα = target: T1, human PPARα (Homo sapiens, UniProt Q07869); assay: PPARα/Gal4 transactivation system; format: cell-based
T1 construct: expressed in transfected cells; host or cells: RK13 or COS-7
T1 sequence (Q07869 239-466 limits assumed): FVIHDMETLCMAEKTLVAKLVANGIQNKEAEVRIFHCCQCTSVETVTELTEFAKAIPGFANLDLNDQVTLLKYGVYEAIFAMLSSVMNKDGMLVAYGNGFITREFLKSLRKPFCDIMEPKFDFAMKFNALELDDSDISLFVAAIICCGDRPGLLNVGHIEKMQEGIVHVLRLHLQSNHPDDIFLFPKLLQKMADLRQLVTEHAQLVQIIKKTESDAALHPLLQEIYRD
Summary of the method: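 Gal4-DBD fused to human PPAR ligand-binding (DEF) domain with Gal4-responsive luciferase reporter, in transfected RK13 or COS-7 cells. RK13: compounds at 10, 30, 100 μM or 1, 10, 100 μM for 24 h, dual-luciferase read, normalised to protein; COS-7: 24 h activation at 37° C in serum-free medium, luciferase read-out.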

[1] = tested on: Human normal primary fibroblasts; assay: Antioxidant properties on cell cultures (carboxy-H2DCFDA fluorescence, AAPH stress), fibroblasts; format: cell-based; settings: 25 μM for 24 h, AAPH 750 μM
Summary of the method: (§1)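 Cells were pretreated 24 h with compound at 25 μM, loaded 30 min at 37 °C with 25 μM carboxy-H2DCFDA, then stressed 30 min with 750 μM AAPH in phenol-red- and serum-free medium. ROS read as fluorescence ([…]); activity expressed as reduction in fluorescence signal.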

HaCat cells = assay: Antioxidant properties on cell cultures (carboxy-H2DCFDA fluorescence, AAPH stress), keratinocytes; format: cell-based, human; settings: 25 μM for 24 h, AAPH 750 μM
Summary of the method: as §1

SMILES | lag phase of conjugated diene formation (LDL; 10^−4M, FIG. 1-7, copper alone 82 minutes) | induction factor (luminescent signal relative to untreated cells) (human PPARα; 1 μM) | induction factor (luminescent signal relative to untreated cells) (human PPARα; 10 μM) | antioxidant properties on cell cultures (in words) [1] | antioxidant properties on cell cultures (in words) (HaCat cells) | lag phase of conjugated diene formation (LDL; 10^−4M, FIG. 1-12, copper alone 120 minutes) | rate of conjugated diene formation (LDL; 10^−4M, FIG. 1-13, copper alone 1.8) | maximum amount of conjugated dienes formed (LDL; FIG. 1-14, copper alone 372) | maximum induction factor (human PPARα; at the 10 or 1 μm concentrations)
CSc1ccc(C(=O)/C=C/c2cc(C)c(OC(C)(C)C(=O)O)c(C)c2)cc1 [Compound 29, 1-[4-methylthiophenyl]-3-[3,5-dimethyl-4-carboxydimethylmethyloxyphenyl]prop-2-en-1-one] | 135 min | 28 | 25 | antioxidant properties | antioxidant properties | – | – | – | –
Cc1cc(/C=C/C(=O)c2ccc(Br)cc2)cc(C)c1OC(C)(C)C(=O)O [Compound 41, 1-[4-bromophenyl]-3-[3,5-dimethyl-4-carboxydimethylmethyloxyphenyl]prop-2-en-1-one] | – | – | – | antioxidant properties | antioxidant properties | 411 min | 0.54 nmol/min/mg of LDL | 71 nmol per mg of LDL | 34

— patent US7566737B2 (Genfit, priority 2002, dated 2009)
